Reference: article PMC11022729 (Advanced Science, 2024)

Assays:
[1] = tested on: voltage-dependent Na+ channels in IB4-binding sensory neurons; assay: Tetrodotoxin-resistant Na+ currents in DRG neurons (patch-clamp); format: cell-based, mouse; conditions: 50 µM
human Slack = biological target: T1, human Slack (Homo sapiens, UniProt Q5JUK3); assay: Whole-cell patch-clamp recordings in HEK-Slack cells; format: cell-based; conditions: 25 µM
T1 construct: host or cells: HEK293
T1 sequence (Q5JUK3 1-1230): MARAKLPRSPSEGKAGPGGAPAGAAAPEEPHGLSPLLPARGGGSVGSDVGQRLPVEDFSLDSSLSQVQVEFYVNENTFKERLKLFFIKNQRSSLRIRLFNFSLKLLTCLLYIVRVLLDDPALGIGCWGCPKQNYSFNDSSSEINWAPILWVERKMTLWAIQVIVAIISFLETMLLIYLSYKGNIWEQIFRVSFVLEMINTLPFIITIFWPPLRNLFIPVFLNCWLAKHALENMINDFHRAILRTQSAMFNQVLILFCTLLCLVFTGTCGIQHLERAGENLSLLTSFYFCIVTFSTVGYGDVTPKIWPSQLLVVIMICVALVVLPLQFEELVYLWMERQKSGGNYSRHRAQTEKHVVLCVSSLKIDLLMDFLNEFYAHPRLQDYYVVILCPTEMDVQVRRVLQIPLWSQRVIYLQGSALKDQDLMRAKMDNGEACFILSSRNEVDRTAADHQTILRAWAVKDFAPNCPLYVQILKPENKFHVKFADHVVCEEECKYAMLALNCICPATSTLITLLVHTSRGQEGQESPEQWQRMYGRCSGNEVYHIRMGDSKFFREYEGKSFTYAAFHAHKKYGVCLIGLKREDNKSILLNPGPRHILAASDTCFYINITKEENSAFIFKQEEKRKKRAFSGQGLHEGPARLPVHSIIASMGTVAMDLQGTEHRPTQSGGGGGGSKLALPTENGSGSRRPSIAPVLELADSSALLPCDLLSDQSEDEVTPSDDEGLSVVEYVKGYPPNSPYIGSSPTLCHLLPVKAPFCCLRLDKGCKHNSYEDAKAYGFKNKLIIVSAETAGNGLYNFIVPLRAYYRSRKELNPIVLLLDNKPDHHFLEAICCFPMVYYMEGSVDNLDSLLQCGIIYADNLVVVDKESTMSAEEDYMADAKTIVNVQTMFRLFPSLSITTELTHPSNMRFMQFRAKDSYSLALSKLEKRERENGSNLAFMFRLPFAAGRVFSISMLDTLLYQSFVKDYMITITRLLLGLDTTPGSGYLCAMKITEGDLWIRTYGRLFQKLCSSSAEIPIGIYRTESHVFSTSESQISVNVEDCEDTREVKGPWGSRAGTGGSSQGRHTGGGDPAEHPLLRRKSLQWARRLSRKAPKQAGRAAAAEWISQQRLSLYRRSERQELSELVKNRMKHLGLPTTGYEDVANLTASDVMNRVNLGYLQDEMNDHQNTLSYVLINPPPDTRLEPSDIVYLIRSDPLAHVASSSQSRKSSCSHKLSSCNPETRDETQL
Description: Next, we verified Slack activation by the new compounds using whole‐cell patch‐clamp recordings in HEK‐Slack cells. […] At a holding potential of −70 mV, a series of 500 ms‐long test pulses ranging from −120 to +120 mV in intervals of 20 mV were applied.^[ [16] ^]
HEK‐Slack cells were plated onto poly‐D‐lysine‐coated (100 µg mL^−1, Sigma–Aldrich) coverslips 1 day before experiments and cultured in DMEM containing 10% FBS and 1% penicillin/streptomycin in 5% CO2 at 37 °C. Whole‐cell voltage‐clamp recordings were acquired using an EPC 9 amplifier combined with Patchmaster software (HEKA Electronics, Lambrecht/Pfalz, Germany). Currents were sampled at 20 kHz and filtered at 5 kHz. Data analysis was performed using the Fitmaster software (HEKA Electronics). Membrane potential was held at −70 mV and outward K^+ current (IK) was evoked by depolarizing steps (500 ms duration) ranging from −120 to +120 mV in increments of 20 mV. The pipette solution contained 140 mM KCl, 2 mM MgCl2, 5 mM EGTA, and 10 mM HEPES and was adjusted to pH 7.4 with KOH. The extracellular solution contained 140 mM NaCl, 5 mM KCl, 2 mM CaCl2, 2 mM MgCl2, and 10 mM HEPES and was adjusted to pH 7.4 with NaOH. […] The fold‐increase values in the patch‐clamp experiments were determined by calculating […]. […]

mice [2] = assay: β-alanine-induced itch behavior; format: in vivo, mouse; conditions: i.p.
Source text: (§1) Chloroquine‐induced scratching in mice is driven by MrgprA3 activation in the NP2 population of sensory neurons.^[ [10], [29] ^] To further explore the antipruritic efficacy of compound 6 in histamine‐independent itch, we assessed the behavioral response after s.c. injection of the peptide Ser‐Leu‐Ile‐Gly‐Arg‐Leu (SLIGRL) that evokes scratching by activation of MrgprC11,^[ [30] ^] which is expressed in the NP2 and NP3 population.^[ [10] ^] […] Moreover, compound 6 ameliorated histamine‐independent itch evoked by s.c. injection of β‐alanine that activates MrgprD^[ [31] ^] in the NP1 population of sensory neurons^[ [10] ^] (Figure 3F). In contrast, scratching induced by subcutaneous histamine was not affected by compound 6 (Figure 3G). The lack of an effect on histamine‐evoked scratching was supported by the low affinity of compound 6 for histamine H1 receptors, which was determined using a [^3H]‐pyrilamine competition binding assay in vitro (Table S3, Supporting Information). […] We also investigated the efficacy of compound 6 after peroral (p.o.) delivery.
(§2) Three to four days before the day of the experiment, the fur on the dorsolateral aspect of the neck was shaved under brief isoflurane anesthesia. […] Number of scratching bouts directed toward the nape of the neck was assessed over 30 min by videotaping. […]

mice [3] = assay: SLIGRL-induced itch behavior; format: in vivo, mouse; conditions: 10 mg kg−1 i.p.
Source text: as §1, §2

For `O=C(O)COCCN1CCN(C2=Nc3ccccc3Oc3ccc(Cl)cc32)CC1` [Compound 6], the “tetrodotoxin-resistant Na+ currents” value [1] was “did not affect”, the “increase in current densities” value (human Slack; 10 mM pipette Na+) was “more pronounced” and the “current densities compared to baseline” value (human Slack; Na+-free pipette solution) was “increased the current densities compared to baseline”. For the same molecule, the “itch evoked by s.c. injection of β-alanine” value (mice [2]) was “ameliorated” and the SLIGRL-induced scratching behavior (mice [3]) was “significantly inhibited”.
